Series [1] concerns M1 central muscarinic cholinergic receptors. Nature of the series: Antagonism to rotatory behaviour induced by intrastriatal injection of pirenzepine in the mouse. Type of series: in vivo, mouse (female, Swiss, CD 1). As to conditions: for change in vivo at 3 mg/kg: Mus musculus, po, read-out: % inhibition of pirenzepine-induced rotations.
Method: Intrastriatal injection of PZ into the mouse induces rotatory behaviour. Antagonism to this behaviour by the products according to the invention was studied.
The products according to the invention were administered in doses of 0.3 or 3 mg/kg orally after being solubilized in distilled water or suspended in a 5% solution of gum arabic. The controls were given pure solvent under the same conditions.
The animals used were female mice (Swiss, CD 1, Charles River, France), body weight between 25 and 30 grams.
Pirenzepine was dissolved in a phosphate buffer, the pH of the solution being 6.
The products under study or solvents thereof were orally administered, using a probang, in a volume of 0.4 ml per 20 g body weight.
The number of contralateral rotations (in the opposite direction to the side of the injection) was counted for three 2-minute periods after injection of pirenzepine (minutes 2-4, 8-10 and 13-15) and was then totalled for each animal. Each treatment comprised three to four doses and ten animals per dose. For each treatment, the total number of rotations and the percentage inhibition relative to the control batch (solvent) was calculated.
Series [2] addresses T1, type M1 muscarinic cholinergic receptor (Rattus norvegicus, UniProt P08482).
T1 sequence (P08482 1-460): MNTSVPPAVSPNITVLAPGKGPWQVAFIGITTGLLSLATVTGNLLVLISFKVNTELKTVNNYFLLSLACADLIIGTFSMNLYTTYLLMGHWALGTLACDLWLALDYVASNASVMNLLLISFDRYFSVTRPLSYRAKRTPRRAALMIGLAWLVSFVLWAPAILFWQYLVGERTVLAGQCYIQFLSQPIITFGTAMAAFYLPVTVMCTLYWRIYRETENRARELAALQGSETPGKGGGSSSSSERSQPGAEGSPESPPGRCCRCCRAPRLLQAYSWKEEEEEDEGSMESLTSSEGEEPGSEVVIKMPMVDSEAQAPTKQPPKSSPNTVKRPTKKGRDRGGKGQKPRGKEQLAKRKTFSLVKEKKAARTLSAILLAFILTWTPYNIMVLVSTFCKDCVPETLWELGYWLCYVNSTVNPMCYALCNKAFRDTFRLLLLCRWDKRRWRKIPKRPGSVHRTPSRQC
Nature of the series: biochemical. The settings on record: for ratio R between the IC50 for receptors M1 and M2 (selectivity): values correspond to IC50 3H-NMS (M2) / IC50 3H-PZ (M1). Type of series: binding.
Method: a) Search for an affinity for the type M1 muscarinic cholinergic receptor
The interaction of molecules with type M1 muscarinic receptors was studied in vitro on homogenized rat hippocampus, by studying the displacement of tritiated pirenzepine form its specific tagging sites. 10 μl portions of homogenized rat hippocampus (5% w/v) in an Na2 HPO4 buffer (50 mM, pH 7.40) were incubated at 4° C. for 2 hours in the presence of ^3 H--Pz (76 Ci/mmol/l nM final), with increasing concentrations of the product under study. The final volume was 2 ml. The reaction was stopped by centrifuging for 10 minutes at 50 000 g. After decantation and washing of the bottoms, the tagged radioactivity was counted by liquid scintillation. Non-specific tagging was determined in the presence of 10 μM of atropine sulphate. The 50 inhibiting concentration (IC50) was determined graphically.

In series [3] the target is T2, type M2 muscarinic cholinergic receptor (Cavia porcellus, UniProt H0VRN8).
T2 construct: studies in vitro on homogenized smooth muscle of guinea-pig ileum; from tissue; host or cells: guinea-pig ileum smooth muscle homogenate
T2 sequence (H0VRN8 1-466): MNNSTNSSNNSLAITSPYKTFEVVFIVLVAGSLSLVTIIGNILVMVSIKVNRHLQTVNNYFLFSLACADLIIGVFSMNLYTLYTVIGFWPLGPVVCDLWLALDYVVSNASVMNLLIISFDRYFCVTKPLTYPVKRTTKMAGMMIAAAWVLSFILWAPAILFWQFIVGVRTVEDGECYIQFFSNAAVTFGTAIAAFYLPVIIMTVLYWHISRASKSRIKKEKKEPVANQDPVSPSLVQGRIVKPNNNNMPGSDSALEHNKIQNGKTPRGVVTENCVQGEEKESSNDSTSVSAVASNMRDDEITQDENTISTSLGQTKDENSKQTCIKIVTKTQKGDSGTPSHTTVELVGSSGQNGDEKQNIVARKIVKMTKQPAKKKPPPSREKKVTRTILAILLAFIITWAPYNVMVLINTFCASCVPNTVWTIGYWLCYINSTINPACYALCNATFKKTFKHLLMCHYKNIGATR
Nature of the series: Affinity for type M2 muscarinic cholinergic receptor: displacement of tritiated N-methylscopolamine (3H-NMS) on homogenized smooth muscle of guinea-pig ileum. Type of series: binding. As to conditions: displacement of 3H-NMS, 30° C., 20 minutes. From the text: BIOCHEMICAL STUDY IN VITRO
M1 type receptors are concentrated in certain zones of the brain such as the hippocampus, the cerebral cortex, the corpus striatum and the sympathetic ganglia. These connection sites can be selectively tagged with tritiated pirenzepine (^3 H--PZ). Type M2 receptors predominate in the heart and the ileum and can be tagged with tritiated N-methylscopolamine (^3 H--NMS). In order to determine the selectivity of the products according to the invention, with regard to sites M1 and M2, a study was made of their interaction in vitro, with high-affinity tagging with ^3 H--PZ and ^3 H--NMS, on rat hippocampus membranes and smooth muscle from guinea-pig ileum respectively.
b) Search for an affinity for the type M2 muscarinic cholinergic receptor
Interaction with type M2 muscarinic receptors was studies in vitro on homogenized smooth muscle of guinea-pig ileum by measuring the displacement of tritiated N-methyl-scopolamine from its specific tagging sites. 50 μl portions of homogenized smooth muscle form guinea-pig ileum (0.625% w/v) in 20 mM of HEPES buffer: 2-((2-hydroxy 4-ethyl) piperazin-1-yl) ethanesulphonic acid containing NaCl (100 mM) and Mg Cl2 (10 mM) (final pH=7.5) were incubated at 30° C. for 20 minutes int eh presence of ^3 H--NMS (85 Ci/mmol/0.3 nM final) with increasing concentrations of the products under test. The final volume was 1 ml. The reaction was stopped by centrifuging for 5 minutes at 15000 g. Non-specific tagging was determined in the presence of […] of atropine sulphate.
The results are expressed as 50% inhibiting concentrations (IC50), i.e. the concentration (in μM) which induces a 50% displacement of the tritiated ligand fixed to the membrane receptors. The IC50 displacement of ^3 H--PZ represents affinity for the M1 receptor, and
The IC50 displacement of ^3 H--NMS represents affinity for the M2 receptor.

Series [4] can be described thus: Acute oral toxicity in mice. Set-up: species or system Swiss, CD 1). As to conditions: mouse, in vivo, female mice, 24 hours after administration, read-out: 50% lethal dose (DL50). As for the experimental part:
The acute toxicity was determined for one product according to the invention: SR 45341 A. The product was orally administered in increasing doses to a batch of 10 female mice (Swiss, CD 1, Charles River, France), body weight 20 g.
The death rate caused by the product under study was noted during the 24 hours after administration of the product. The 50% lethal dose (DL50) was determined, i.e. the dose which killed 50% of the animals.

[5] abbreviates: 3 mg/kg p.o., 4 hours before pirenzepine 1 μg intrastriatal, *p<0.05, **p<0.01 Student's test.
Where [6] appears, read: displacement of 3H-PZ, rat hippocampus homogenate, 4° C., 2 hours, read-out: IC50 3H-PZ (M1).

SMILES strings stand for the structures. Structures can show the parent of a compound that is named as a salt. Where two headings read alike, the source gives them in different places.

In the case of `c1ccc(-c2nnc(NCCN3CCOCC3)s2)cc1` [A, reference compound], the change in vivo at 3 mg/kg in series [1] (setting [5]) was -8%.
`Cc1cc(C)c(-c2nnc(NCCCN(C)C)s2)c(C)c1Br` [SR 45340 A]: the IC50 was 3.5 µM in series [2] (setting [6]) and 27 µM in series [3]. In addition, the “ratio R between the IC50 for receptors M1 and M2 (selectivity)” value (from here on “ratio R between the IC50 … (selectivity)”) in series [2] is 6. For the same compound, the change in vivo at 3 mg/kg in series [1] (setting [5]) is -95%.
Regarding `CN(Cc1cccnc1)c1nnc(-c2ccc(F)cc2)s1` [SR 45530 A], the change in vivo at 3 mg/kg in series [1] (setting [5]) is -41%.
Turning to `CN1CCC(N(C)c2nnc(-c3ccccc3)s2)CC1` [SR 44828 A, Dihydrochloride and hydrate of 2-[N-methyl N-(1-methyl 4-piperidyl)amino-5-phenyl-1,3,4-thiadiazole], the IC50 in series [2] was 9 µM. For the same compound, the change in vivo at 3 mg/kg in series [1] (4 h) is -26%.
Take `Clc1ccc(-c2nnc(NCCCn3ccnc3)s2)c(Cl)c1` [SR 45504 A]: the IC50 in series [2] (setting [6]) is 3 µM; in series [3] it was 40 µM. Further, the “ratio R between the IC50 … (selectivity)” value in series [2] was 13.
For `CN(C)CCCNc1nnc(-c2ccc(Cl)cc2)s1` [SR 45480 A], the values for the IC50 in series [2] (setting [6]) and in series [3] were 4.5 µM and 50 µM, respectively. Further, the “ratio R between the IC50 … (selectivity)” value in series [2] came to 11. Also, the change in vivo at 3 mg/kg in series [1] (setting [5]) is -54%.
Take `Fc1ccc(-c2nnc(NCc3cccnc3)s2)cc1` [SR 45447 A]: the change in vivo at 3 mg/kg in series [1] (setting [5]) is -62%.
On the same count and under the same terms, next, `Clc1ccc(-c2nnc(NCCCn3ccnc3)s2)c(Cl)c1` [SR - A]: -60%.
Turning to `CNCCCNc1nnc(-c2c(C)cc(C)cc2C)s1.Cl.Cl` [SR 45418 A, 2-(3-methylaminopropylamino) 5-(2,4,6-trimethylphenyl) 1,3,4-thiadiazole dihydrochloride], the IC50 was 20 µM in series [2] (setting [6]) and greater than 100 µM in series [3]. In series [2], the “ratio R between the IC50 … (selectivity)” value is given as greater than 5. Also, the change in vivo at 3 mg/kg in series [1] (setting [5]) was -77%.
Take `CN(C)CCNc1nnc(-c2ccccc2)s1` [C, reference compound]: the change in vivo at 3 mg/kg in series [1] (setting [5]) is -12%.
For the compound `CCN(CC)CCCNc1nnc(-c2c(C)cc(C)cc2C)s1` [SR 45352 A], the values for the concentration for half-maximal inhibition (IC50) in series [2] (setting [6]) and in series [3] were 5.5 µM and 30 µM, respectively. Moreover, the “ratio R between the IC50 … (selectivity)” value in series [2] is recorded as 5. In addition, the change in vivo at 3 mg/kg in series [1] (setting [5]) was -32%.
As to `CNCCCNc1nnc(-c2ccc(Cl)cc2Cl)s1` [SR 45479 A], the IC50 in series [2] (setting [6]) turned out to be 14 µM; in series [3], 70 µM. Also, the “ratio R between the IC50 … (selectivity)” value in series [2] turned out to be 5.
Regarding `CN1CCCC1CCNc1nnc(-c2ccc(Cl)cc2Cl)s1` (centres unmarked) [SR 45490 A], the change in vivo at 3 mg/kg in series [1] (setting [5]) is -73%.
Regarding `CN1CCCC(CNc2nnc(-c3ccc(Cl)cc3)s2)C1` (centres unmarked) [SR 45491 A, 2-[(N-methyl 3-piperidyl)methylamino]-5-(4-chlorophenyl)-1,3,4-thiadiazoledihydrochloride], the change in vivo at 3 mg/kg in series [1] (setting [5]) is -57%.
For `CNC1CCN(c2nnc(-c3ccccc3)s2)CC1` [SR 44825 A, 2-(4-methylaminopiperidino)-5-phenyl-1,3,4-thiadiazole dihydrochloride], the IC50 in series [3] was 80 µM.
With `Cc1cc(C)c(-c2nnc(NCCCN(C)C)s2)c(C)c1.Cl.Cl` [SR 45341 A, 2-(3-dimethylaminopropylamino)-5-(2,4,6-trimethylphenyl)-1,3,4 thiadiazole dihydrochloride], the IC50 in series [2] (setting [6]) turned out to be 0.45 µM; in series [3], 72 µM. The “ratio R between the IC50 … (selectivity)” value in series [2] is listed as 160. For the same compound, the change in vivo at 3 mg/kg in series [1] (setting [5]) was -74%. Besides, the LD50 at 24 h in series [4] is greater than 300 mg/kg.
Turning to `CCN(CCCN(C)C)c1nnc(-c2ccc(F)cc2)s1` [SR 45483 A], the IC50 worked out at 2.4 µM in series [2] (setting [6]) and 20 µM in series [3]. The “ratio R between the IC50 … (selectivity)” value in series [2] stood at 8. Also, the change in vivo at 3 mg/kg in series [1] (setting [5]) is -20%.
`Cc1cc(C)c(-c2nnc(NCc3cccnc3)s2)c(C)c1` [SR 45417 A]: in series [1] (setting [5]), the change in vivo at 3 mg/kg was -43%.
The same measure, in the same setting: next, `Clc1ccc(-c2nnc(NCc3cccnc3)s2)cc1` [SR 45488 A]: -49%.
As to `Clc1ccc(-c2nnc(NCCCN3CCCC3)s2)c(Cl)c1` [SR 45458 A], the IC50 came out at 0.8 µM in series [2] (setting [6]) and 12 µM in series [3]. Also, the “ratio R between the IC50 … (selectivity)” value in series [2] is reported as 15. In series [1] (setting [5]), the change in vivo at 3 mg/kg was -28%.
`CN(C)CCCNc1nnc(-c2ccccc2)s1` [SR 44824 A]: the IC50 is 3 µM in series [2] (setting [6]) and greater than 100 µM in series [3]. The “ratio R between the IC50 … (selectivity)” value in series [2] is recorded as greater than 30. For the same compound, the change in vivo at 3 mg/kg in series [1] (setting [5]) was -27%.
Regarding `Clc1ccc(-c2nnc(NCCc3ccccn3)s2)c(Cl)c1` [SR 45492 A], the change in vivo at 3 mg/kg in series [1] (setting [5]) was -50%.
Consider `Fc1ccc(-c2nnc(NCc3ccncc3)s2)cc1` [SR 45482 A], for which, in series [1] (setting [5]), the change in vivo at 3 mg/kg is -53%.
As to `Clc1ccc(-c2nnc(NCc3cccnc3)s2)c(Cl)c1` [SR 45459 A], in series [1] (setting [5]), the change in vivo at 3 mg/kg is -29%.
Consider `FC(F)(F)c1cccc(-c2nnc(NCCN3CCOCC3)s2)c1` [B, reference compound], for which the “% inhibition of pirenzepine-induced rotations” value in series [1] (0,3 mg/kg p.o., 4 hours before pirenzepine 1 μg intrastriatal, *p<0.05, **p<0.01 Student's test) is “Inactive”; in series [1] (setting [5]), “Inactive”.
In the case of `CCN(CC)CCCCNc1nnc(-c2ccccc2)s1` [SR 45339 A, Dihydrochloride of 2-(4-diethylaminobutylamino)-5-phenyl-1,3,4-thiadiazole], the IC50 is 5 µM in series [2] (setting [6]) and 34 µM in series [3]. Further, the “ratio R between the IC50 … (selectivity)” value in series [2] worked out at 7. In series [1] (setting [5]), the change in vivo at 3 mg/kg is -77%.
On to `CN(C)CCCNc1nnc(-c2ccc(F)cc2)s1` [SR 45421 A], for which the change in vivo at 3 mg/kg in series [1] (setting [5]) was -38%.
Consider `CN1CCN(CCCNc2nnc(-c3ccc(Cl)cc3)s2)CC1` [SR 45489 A], for which the IC50 in series [2] (setting [6]) was found to be 3.6 µM; in series [3], 26 µM. The “ratio R between the IC50 … (selectivity)” value in series [2] stood at 7. The change in vivo at 3 mg/kg in series [1] (setting [5]) was -29%.
The matching figures for `Clc1ccc(-c2nnc(NCCCN3CCOCC3)s2)cc1` [SR 45520 A]: 4.5 µM, 80 µM, 17 and -75%.
For `CCN(CC)CCCNc1nnc(-c2ccc(Cl)cc2Cl)s1` [SR 45481 A], the change in vivo at 3 mg/kg in series [1] (setting [5]) is -67%.
On to `CN(C)CCCNc1nnc(-c2ccc(Cl)cc2Cl)s1` [SR 45422 A], for which the IC50 in series [2] (setting [6]) worked out at 0.7 µM; in series [3], 26 µM. In addition, the “ratio R between the IC50 … (selectivity)” value in series [2] was determined as 37. Also, the change in vivo at 3 mg/kg in series [1] (setting [5]) was -50%.

These data come from patent US5086053A, “Derivatives of 1,3,4-thiadiazole, a method of obtaining them and pharmaceutical compositions containing them” (Sanofi, priority 1988, dated 1992).
